In PubChem BioAssay (NCI):
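Values below derive from 48-hour exposures of cells grown in 96-well plates, with endpoints linearly interpolated between the two concentrations bracketing the appropriate inhibition level. TGI: concentration producing complete growth inhibition.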

Key:
Assay in all cases: NCI tumour cell line growth inhibition, 48 h
[1] = system: DLD-1 colon
[2] = system: DMS 273 small cell lung
[3] = system: HOP-18 NSCLC
[4] = system: KM20L2 colon
[5] = system: M19-MEL melanoma
[6] = system: P388/ADR leukemia
[7] = system: SN12K1 renal
[8] = system: XF 498 CNS
[9] = system: A498 renal

Compound | TGI [1] | TGI [2] | TGI [3] | TGI [4] | TGI [5] | TGI [6] | TGI [7] | TGI [8] | TGI [9]
NC1(C(=O)O)CCCC1 | > 625 µM | > 625 µM | > 625 µM | > 625 µM | > 625 µM | > 625 µM | > 625 µM | 6.25 µM | –
COc1ccc(Oc2nc(C#CC(C)(C)O)nc(Oc3ccc(OC)cc3)n2)cc1 | – | – | – | – | – | – | – | – | 31.6 µM
